Format in all cases: functional
Experiment [1] has as its system Bacillus subtilis. The experiment can be described thus: Antibacterial activity against wild-type Bacillus subtilis 168 after 15 hrs. The conditions noted are these: subsp. subtilis str. 168, 15 h.
The test system of experiment [2] is Bacillus subtilis. The experiment can be described thus: Antibacterial activity against Bacillus subtilis RIK543 after 15 hrs. The conditions noted are these: RIK543, 15 h.
Experiment [3] concerns Bacillus subtilis. The experiment can be described thus: Antibacterial activity against Bacillus subtilis isolate 14 harboring 608C-T KsgA mutant and expressing amino acid exchange at S203F in KsgA gene.
Experiment [4] concerns Bacillus subtilis. The experiment can be described thus: Antibacterial activity against Bacillus subtilis isolate 15 harboring 324C-CTC KsgA mutant and expressing amino acid exchange at K109S, Val 125 - stop codon in KsgA gene.
In experiment [5] the test system is Bacillus subtilis. The experiment can be described thus: Antibacterial activity against Bacillus subtilis isolate 16 harboring 181G-GG KsgA mutant and expressing amino acid exchange at A61G, Glu 77- stop codon in KsgA gene.
Experiment [6] deals with Bacillus subtilis. The experiment can be described thus: Antibacterial activity against Bacillus subtilis isolate 17 harboring 709-850 deficient KsgA mutant and expressing amino acid exchange at K237L in KsgA gene.
Experiment [7] concerns Bacillus subtilis. The experiment can be described thus: Antibacterial activity against Bacillus subtilis isolate 18 harboring 495-525 deficient KsgA mutant and expressing amino acid exchange at N165E, Ala 177- stop codon in KsgA gene.
Experiment [8] deals with Bacillus subtilis. The experiment can be described thus: Antibacterial activity against Bacillus subtilis isolate 19 harboring 230A-G KsgA mutant and expressing amino acid exchange at A61G, E77K in KsgA gene.
Experiment [9] deals with Bacillus subtilis. The experiment can be described thus: Antibacterial activity against Bacillus subtilis isolate KO-847 KsgA mutant after 2 days. The conditions noted are these: isolate KO-847, 48 h.
The subject of experiment [10] is Bacillus subtilis. The experiment can be described thus: Antibacterial activity against Bacillus subtilis isolate KO-894 speD mutant after 2 days. The conditions noted are these: isolate KO-894, 48 h.
Experiment [11] relates to Bacillus subtilis. The experiment can be described thus: Antibacterial activity against Bacillus subtilis isolate KO-875 KsgA mutant and harboring 19G-T speD mutant and expressing amino acid exchange at G7Win speD gene after 2 days. The conditions noted are these: isolate KO-875, 48 h.
Experiment [12] has as its system Bacillus subtilis. The experiment can be described thus: Antibacterial activity against Bacillus subtilis isolate KO-876 KsgA mutant and harboring 22C-GT speD mutant after 2 days. The conditions noted are these: isolate KO-876, 48 h.
In experiment [13] the test system is Bacillus subtilis. The experiment can be described thus: Antibacterial activity against Bacillus subtilis isolate KO-877 KsgA mutant and harboring 191A-T speD mutant and expressing amino acid exchange at G64Vin speD gene after 2 days. The conditions noted are these: isolate KO-877, 48 h.
Experiment [14] relates to Bacillus subtilis. The experiment can be described thus: Antibacterial activity against Bacillus subtilis isolate KO-878 KsgA mutant and harboring 193T-A speD mutant and expressing amino acid exchange at S65T in speD gene after 2 days. The conditions noted are these: isolate KO-878, 48 h.
Experiment [15] deals with Bacillus subtilis. The experiment can be described thus: Antibacterial activity against Bacillus subtilis isolate KO-879 KsgA mutant and harboring 236G-T speD mutant and expressing amino acid exchange at S79I in speD gene after 2 days. The conditions noted are these: isolate KO-879, 48 h.
For the next experiment, the system named is Escherichia coli. The experiment can be described thus: Antibacterial activity against Escherichia coli BW25113 after 15 hrs. The conditions noted are these: BW25113, 15 h.
Experiment [16] has as its system Bacillus subtilis. The experiment can be described thus: Antibacterial activity against Bacillus subtilis isolate 1 harboring 253-261 deficient KsgA and expressing amino acid exchange at 85-87 Ile, Leu, Lys-deletionin KsgA gene.
Experiment [17] relates to Bacillus subtilis. The experiment can be described thus: Antibacterial activity against Bacillus subtilis isolate 2 harboring 708-717 deficient KsgA and expressing amino acid exchange at K235S, Leu240-stop codon in KsgA gene.
Experiment [18] concerns Bacillus subtilis. The experiment can be described thus: Antibacterial activity against Bacillus subtilis isolate 3 harboring 301C-T KsgA and expressing amino acid exchange at Gln101-stop codon in KsgA gene.
Experiment [19] has as its system Bacillus subtilis. The experiment can be described thus: Antibacterial activity against Bacillus subtilis isolate 4 harboring 709-850 deficient KsgA and expressing amino acid exchange at K237L in KsgA gene.
Experiment [20] has as its system Bacillus subtilis. The experiment can be described thus: Antibacterial activity against Bacillus subtilis isolate 5 harboring 478-492 deficient KsgA and expressing amino acid exchange at Glu 160, Ala 164 deletion in KsgA gene.
The subject of experiment [21] is Bacillus subtilis. The experiment can be described thus: Antibacterial activity against Bacillus subtilis isolate 6 harboring 272C-G KsgA mutant and expressing amino acid exchange at Ser 91 -stop codon in KsgA gene.
Experiment [22] concerns Bacillus subtilis. The experiment can be described thus: Antibacterial activity against Bacillus subtilis isolate 7 harboring 198T-TT KsgA mutant and expressing amino acid exchange at A67C, Glu 77- stop codon in KsgA gene.
For experiment [23], the system named is Bacillus subtilis. The experiment can be described thus: Antibacterial activity against Bacillus subtilis isolate 8 harboring 515G-GGG KsgA mutant and expressing amino acid exchange at S173A, Met 188 -stop codon in KsgA gene.
Experiment [24] deals with Bacillus subtilis. The experiment can be described thus: Antibacterial activity against Bacillus subtilis isolate 9 harboring 515G-GG KsgA mutant and expressing amino acid exchange at S173L,Asn 200 -stop codon in KsgA gene.
The test system of experiment [25] is Bacillus subtilis. The experiment can be described thus: Antibacterial activity against Bacillus subtilis isolate 10 harboring 706C-T KsgA mutant and expressing amino acid exchange at R236C in KsgA gene.
Experiment [26] relates to Bacillus subtilis. The experiment can be described thus: Antibacterial activity against Bacillus subtilis isolate 11 harboring 274-295 deficient KsgA mutant and expressing amino acid exchange at P92F, Thr 97- stop codon in KsgA gene.
For experiment [27], the system named is Bacillus subtilis. The experiment can be described thus: Antibacterial activity against Bacillus subtilis isolate 12 harboring 597-615 deficient KsgA mutant and expressing amino acid exchange at N200F, Asp 202- stop codon in KsgA gene.
Experiment [28] has as its system Bacillus subtilis. The experiment can be described thus: Antibacterial activity against Bacillus subtilis isolate 13 harboring 393C-G KsgA mutant and expressing amino acid exchange at Tyr 131- stop codon in KsgA gene.

Usually MIC stands for the lowest concentration found to suppress growth.

Values after ≈ are worked out from the molar mass of the structure shown.

Regarding `CO[C@H]1/C=C/O[C@@]2(C)Oc3c(C)c(O)c4c(O)c(c(/C=N/N5CCN(C)CC5)c(O)c4c3C2=O)NC(=O)/C(C)=C\C=C\[C@H](C)[C@H](O)[C@@H](C)[C@@H](O)[C@@H](C)[C@H](OC(C)=O)[C@@H]1C` [RIFAMPIN], the MIC against Bacillus subtilis [1] was 0.1 µg/mL (≈ 0.000122 mM); against Bacillus subtilis [2], 0.01 µg/mL (≈ 1.22e-05 mM).
In the case of `C=C(NC(=O)C(=C)NC(=O)c1csc(C2=N[C@@H]3c4csc(n4)[C@H]4NC(=O)c5csc(n5)[C@H]([C@](C)(O)[C@@H](C)O)NC(=O)[C@H]5CSC(=N5)/C(=C/C)NC(=O)[C@H]([C@@H](C)O)NC(=O)c5csc(n5)[C@]3(CC2)NC(=O)[C@H](C)NC(=O)C(=C)NC(=O)[C@H](C)NC(=O)[C@H]([C@@H](C)CC)N[C@@H]2C=Cc3c([C@H](C)O)cc(nc3[C@H]2O)C(=O)O[C@@H]4C)n1)C(N)=O` [THIOSTREPTON], the results for the MIC against Bacillus subtilis [1] and in the experiment with Bacillus subtilis [2] were 0.04 µg/mL (≈ 2.4e-05 mM) and 0.02 µg/mL (≈ 1.2e-05 mM), respectively.
On the same counts, the results for `CN[C@@H]1[C@H](O[C@H]2[C@H](O[C@H]3[C@H](O)[C@@H](O)[C@H](N=C(N)N)[C@@H](O)[C@@H]3N=C(N)N)O[C@@H](C)[C@]2(O)C=O)O[C@@H](CO)[C@H](O)[C@H]1O` [STREPTOMYCIN] are 15 µg/mL (≈ 0.0258 mM) and 5 µg/mL (≈ 0.0086 mM).
For the molecule `C[C@H]1O[C@H](O[C@H]2[C@H](O)[C@@H](O)[C@@H](O)[C@H](O)[C@@H]2O)[C@@H](N)C[C@@H]1NC(=N)C(=O)O` [KASUGAMYCIN], the MIC with Bacillus subtilis [3], in the experiment with Bacillus subtilis [4], with Bacillus subtilis [5], against Bacillus subtilis [6], in the experiment on Bacillus subtilis [7] and with Bacillus subtilis [8] was 1500 µg/mL (≈ 3.95 mM) each time. Further, the MIC against Bacillus subtilis [9] was 5000 µg/mL (≈ 13.2 mM); against Bacillus subtilis [10] it was 4000 µg/mL (≈ 10.5 mM); with Bacillus subtilis [11] it was 15 mg/mL (≈ 39.5 mM); in the experiment with Bacillus subtilis [12], 15 mg/mL (≈ 39.5 mM); in the experiment on Bacillus subtilis [13] it was 15 mg/mL (≈ 39.5 mM); in the experiment on Bacillus subtilis [14] it was 15 mg/mL (≈ 39.5 mM). In addition, the MIC is 15 mg/mL (≈ 39.5 mM) in the experiment with Bacillus subtilis [15]; 1500 µg/mL (≈ 3.95 mM) in the experiment on Bacillus subtilis [1]; 200 µg/mL (≈ 0.527 mM) against Escherichia coli; 500 µg/mL (≈ 1.32 mM) against Bacillus subtilis [2]; 1500 µg/mL (≈ 3.95 mM) against Bacillus subtilis [16]; 1500 µg/mL (≈ 3.95 mM) in the experiment with Bacillus subtilis [17]. Further, the MIC with Bacillus subtilis [18], against Bacillus subtilis [19], against Bacillus subtilis [20], in the experiment on Bacillus subtilis [21], with Bacillus subtilis [22] and in the experiment on Bacillus subtilis [23] was 1500 µg/mL (≈ 3.95 mM) each time. The MIC against Bacillus subtilis [24], against Bacillus subtilis [25], against Bacillus subtilis [26], against Bacillus subtilis [27] and with Bacillus subtilis [28] was 1500 µg/mL (≈ 3.95 mM) throughout.
